The source of these data is patent US8906889B2, “C-3 cycloalkenyl triterpenoids with HIV maturation inhibitory activity” (priority 2012, dated 2014).

Counter-ions that a name gives are not always drawn.

The subject of this assay is recombinant NL4-3 virus (Renilla luciferase, Gag P373S). Put plainly: HIV cell culture assay (luciferase reporter, MT-2 cells). The format is cell-based. The conditions noted are these: Renilla, NL43, MT-2 cells infected for 4-5 days with NLRluc recombinants; luciferase activity. The method, then:
MT-2 cells and 293T cells were obtained from the NIH AIDS Research and Reference Reagent Program. MT-2 cells were propagated in RPMI 1640 media supplemented with 10% heat inactivated fetal bovine serum, […]. The 293T cells were propagated in DMEM media supplemented with 10% heat inactivated fetal bovine serum (FBS), 100 units/ml penicillin G and 100 μg/ml streptomycin. The proviral DNA clone of NL4-3 was obtained from the NIH AIDS Research and Reference Reagent Program. A recombinant NL4-3 virus, in which a section of the nef gene from NL4-3 was replaced with the Renilla luciferase gene, was used as a reference virus. In addition, residue Gag P373 was converted to P373S. Briefly, the recombinant virus was prepared by transfection of the altered proviral clone of NL4-3. Transfections were performed in 293T cells using LipofectAMINE PLUS from Invitrogen (Carlsbad, Calif.), according to manufacturer's instruction. The virus was titered in MT-2 cells using luciferase enzyme activity as a marker. Luciferase was quantitated using the Dual Luciferase kit from Promega (Madison, Wis.), with modifications to the manufacturer's protocol. The diluted Passive Lysis solution was pre-mixed with the re-suspended Luciferase Assay Reagent and the re-suspended Stop & Glo Substrate (2:1:1 ratio). Fifty (50) μL of the mixture was added to each aspirated well on assay plates and luciferase activity was measured immediately on a Wallac TriLux (Perkin-Elmer). Antiviral activities of inhibitors toward the recombinant virus were quantified by measuring luciferase activity in cells infected for 4-5 days with NLRluc recombinants in the presence serial dilutions of the inhibitor.
In general, EC50 refers to the midpoint of the concentration-response curve. As for `C=C(C)[C@@H]1CC[C@]2(NCCN3CCS(=O)(=O)CC3)CC[C@]3(C)[C@H](CC[C@@H]4[C@@]5(C)CC=C(C6=CC7(C6)CC(C(=O)O)(C(=O)O)C7)C(C)(C)[C@@H]5CC[C@]43C)[C@@H]12` [Example 1, 6-((1R,3aS,5aR,5bR,7aR,11aS,11bR,13aR,13bR)-3a-((2-(1,1-dioxidothiomorpholino)ethyl)amino)-5a,5b,8,8,11a-pentamethyl-1-(prop-1-en-2-yl)-2,3,3a,4,5,5a,5b,6,7,7a,8,11,11a,11b,12,13,13a,13b-octadecahydro-1H-cyclopenta[a]chrysen-9-yl)spiro[3.3]hept-5-ene-2,2-dicarboxylic acid, HCl], the EC50 is 10 nM.

As to `C=C(C)[C@@H]1CC[C@]2(NCCN3CCS(=O)(=O)CC3)CC[C@]3(C)[C@H](CC[C@@H]4[C@@]5(C)C=CC(=C6CC7(C6)CC(C(=O)O)(C(=O)O)C7)C(C)(C)[C@@H]5CC[C@]43C)[C@@H]12` [Example 2, 6-((1R,3aS,5aR,5bR,7aR,11aS,11bR,13aR,13bR)-3a-((2-(1,1-dioxidothiomorpholino)ethyl)amino)-5a,5b,8,8,11a-pentamethyl-1-(prop-1-en-2-yl)-2,3,3a,4,5,5a,6,7,7a,8,11b,12,13,13a-tetradecahydro-1H-cyclopenta[a]chrysen-9(5bH,11aH,13bH)-ylidene)spiro[3.3]heptane-2,2-dicarboxylic acid, HCl], the EC50 came out at 30 nM. To `C=C(C)[C@@H]1CC[C@]2(NCCN3CCS(=O)(=O)CC3)CC[C@]3(C)[C@H](CC[C@@H]4[C@@]5(C)CC=C(C6=CC7(C6)CC(C(=O)O)C7)C(C)(C)[C@@H]5CC[C@]43C)[C@@H]12` (stereo partly drawn) [Example 3, 6-((1R,3aS,5aR,5bR,7aR,11aS,11bR,13aR,13bR)-3a-((2-(1,1-dioxidothiomorpholino)ethyl)amino)-5a,5b,8,8,11a-pentamethyl-1-(prop-1-en-2-yl)-2,3,3a,4,5,5a,5b,6,7,7a,8,11,11a,11b,12,13,13a,13b-octadecahydro-1H-cyclopenta[a]chrysen-9-yl)spiro[3.3]hept-5-ene-2-carboxylic acid, HCl] belongs 1.54 nM.

As to `C=C(C)[C@@H]1CC[C@]2(NCCN3CCS(=O)(=O)CC3)CC[C@]3(C)[C@H](CC[C@@H]4[C@@]5(C)CC=C(C6=CCC(C(=O)O)CC6)C(C)(C)[C@@H]5CC[C@]43C)[C@@H]12` (stereo partly drawn) [Example 4, 4-((1R,3aS,5aR,5bR,7aR,11aS,11bR,13aR,13bR)-3a-((2-(1,1-dioxidothiomorpholino)ethyl)amino)-5a,5b,8,8,11a-pentamethyl-1-(prop-1-en-2-yl)-2,3,3a,4,5,5a,5b,6,7,7a,8,11,11a,11b,12,13,13a,13b-octadecahydro-1H-cyclopenta[a]chrysen-9-yl)cyclohex-3-enecarboxylic acid, TFA], the EC50 was 0.659 nM. To `CC(C)[C@@H]1CC[C@]2(NCCN3CCS(=O)(=O)CC3)CC[C@]3(C)[C@H](CC[C@@H]4[C@@]5(C)CC=C(C6CC7(C6)CC(C(=O)O)(C(=O)O)C7)C(C)(C)[C@@H]5CC[C@]43C)[C@@H]12` [Example 5, 6-((1S,3aS,5aR,5bR,7aR,11aS,11bR,13aR,13bR)-3a-((2-(1,1-dioxidothiomorpholino)ethyl)amino)-1-isopropyl-5a,5b,8,8,11a-pentamethyl-2,3,3a,4,5,5a,5b,6,7,7a,8,11,11a,11b,12,13,13a,13b-octadecahydro-1H-cyclopenta[a]chrysen-9-yl)spiro[3.3]heptane-2,2-dicarboxylic acid, TFA] belongs 40 nM.

Take `C=C(C)[C@@H]1CC[C@]2(C(=O)O)CC[C@]3(C)[C@H](CC[C@@H]4[C@@]5(C)CC=C(C6=CC7(C6)CC(C(=O)O)(C(=O)O)C7)C(C)(C)[C@@H]5CC[C@]43C)[C@@H]12` [Example 6, 6-((1R,3aS,5aR,5bR,7aR,11aS,11bR,13aR,13bR)-3a-carboxy-5a,5b,8,8,11a-pentamethyl-1-(prop-1-en-2-yl)-2,3,3a,4,5,5a,5b,6,7,7a,8,11,11a,11b,12,13,13a,13b-octadecahydro-1H-cyclopenta[a]chrysen-9-yl)spiro[3.3]hept-5-ene-2,2-dicarboxylic acid]: the EC50 stood at 30 nM. For `C=C(C)[C@@H]1CC[C@]2(NCCN3CCS(=O)(=O)CC3)CC[C@]3(C)[C@H](CC[C@@H]4[C@@]5(C)CC=C(C6=CCC(C(=O)O)(C(=O)O)CC6)C(C)(C)[C@@H]5CC[C@]43C)[C@@H]12` [Example 7, 4-((1R,3aS,5aR,5bR,7aR,11aS,11bR,13aR,13bR)-3a-((2-(1,1-dioxidothiomorpholino)ethyl)amino)-5a,5b,8,8,11a-pentamethyl-1-(prop-1-en-2-yl)-2,3,3a,4,5,5a,5b,6,7,7a,8,11,11a,11b,12,13,13a,13b-octadecahydro-1H-cyclopenta[a]chrysen-9-yl)cyclohex-3-ene-1,1-dicarboxylic acid, TFA], the EC50 came to 100 nM. To `CC(C)[C@@H]1CC[C@]2(NCCN3CCS(=O)(=O)CC3)CC[C@]3(C)[C@H](CC[C@@H]4[C@@]5(C)CC=C(C6=CCC(C(=O)O)CC6)C(C)(C)[C@@H]5CC[C@]43C)[C@@H]12` (stereo partly drawn) [Example 8, 4-((1S,3aS,5aR,5bR,7aR,11aS,11bR,13aR,13bR)-3a-((2-(1,1-dioxidothiomorpholino)ethyl)amino)-1-isopropyl-5a,5b,8,8,11a-pentamethyl-2,3,3a,4,5,5a,5b,6,7,7a,8,11,11a,11b,12,13,13a,13b-octadecahydro-1H-cyclopenta[a]chrysen-9-yl)cyclohex-3-enecarboxylic acid, TFA] belongs 1.01 nM.

In the case of `C=C(C)[C@@H]1CC[C@]2(NCCN3CCS(=O)(=O)CC3)CC[C@]3(C)[C@H](CC[C@@H]4[C@@]5(C)CC=C(C6=CCC(O)(C(=O)O)CC6)C(C)(C)[C@@H]5CC[C@]43C)[C@@H]12` (stereo partly drawn) [Example 11, 4-((1R,3aS,5aR,5bR,7aR,11aS,11bR,13aR,13bR)-3a-((2-(1,1-dioxidothiomorpholino)ethyl)amino)-5a,5b,8,8,11a-pentamethyl-1-(prop-1-en-2-yl)-2,3,3a,4,5,5a,5b,6,7,7a,8,11,11a,11b,12,13,13a,13b-octadecahydro-1H-cyclopenta[a]chrysen-9-yl)-1-hydroxycyclohex-3-enecarboxylic acid, TFA], the EC50 is 1.99 nM. For the compound `C=C(C)[C@@H]1CC[C@]2(NCCN3CCN(S(C)(=O)=O)CC3)CC[C@]3(C)[C@H](CC[C@@H]4[C@@]5(C)CC=C(C6=CCC(C(=O)O)CC6)C(C)(C)[C@@H]5CC[C@]43C)[C@@H]12` (stereo partly drawn) [Example 12, 4-((1R,3aS,5aR,5bR,7aR,11aS,11bR,13aR,13bR)-5a,5b,8,8,11a-pentamethyl-3a-((2-(4-(methylsulfonyl)piperazin-1-yl)ethyl)amino)-1-(prop-1-en-2-yl)-2,3,3a,4,5,5a,5b,6,7,7a,8,11,11a,11b,12,13,13a,13b-octadecahydro-1H-cyclopenta[a]chrysen-9-yl)cyclohex-3-enecarboxylic acid, TFA], the EC50 came out at 3.03 nM. Consider `C=C(C)[C@@H]1CC[C@]2(NCCN3CCC(S(C)(=O)=O)CC3)CC[C@]3(C)[C@H](CC[C@@H]4[C@@]5(C)CC=C(C6=CCC(C(=O)O)CC6)C(C)(C)[C@@H]5CC[C@]43C)[C@@H]12` (stereo partly drawn) [Example 13, 4-((1R,3aS,5aR,5bR,7aR,11aS,11bR,13aR,13bR)-5a,5b,8,8,11a-pentamethyl-3a-((2-(4-(methylsulfonyl)piperidin-1-yl)ethyl)amino)-1-(prop-1-en-2-yl)-2,3,3a,4,5,5a,5b,6,7,7a,8,11,11a,11b,12,13,13a,13b-octadecahydro-1H-cyclopenta[a]chrysen-9-yl)cyclohex-3-enecarboxylic acid, TFA], for which the EC50 was found to be 0.975 nM. With `C=C(C)[C@@H]1CC[C@]2(NCCN3CCOCC3)CC[C@]3(C)[C@H](CC[C@@H]4[C@@]5(C)CC=C(C6=CCC(C(=O)O)CC6)C(C)(C)[C@@H]5CC[C@]43C)[C@@H]12` (stereo partly drawn) [Example 14, 4-((1R,3aS,5aR,5bR,7aR,11aS,11bR,13aR,13bR)-5a,5b,8,8,11a-pentamethyl-3a-((2-morpholinoethyl)amino)-1-(prop-1-en-2-yl)-2,3,3a,4,5,5a,5b,6,7,7a,8,11,11a,11b,12,13,13a,13b-octadecahydro-1H-cyclopenta[a]chrysen-9-yl)cyclohex-3-enecarboxylic acid, TFA] the figure was 5.61 nM. With `C=C(C)[C@@H]1CC[C@]2(NCCN3CCC(S(C)(=O)=O)CC3)CC[C@]3(C)[C@H](CC[C@@H]4[C@@]5(C)CC=C(C6=CC[C@H](C(=O)O)CC6)C(C)(C)[C@@H]5CC[C@]43C)[C@@H]12` [Example 15, (R)-4-((1R,3aS,5aR,5bR,7aR,11aS,11bR,13aR,13bR)-5a,5b,8,8,11a-pentamethyl-3a-((2-(4-(methylsulfonyl)piperidin-1-yl)ethyl)amino)-1-(prop-1-en-2-yl)-2,3,3a,4,5,5a,5b,6,7,7a,8,11,11a,11b,12,13,13a,13b-octadecahydro-1H-cyclopenta[a]chrysen-9-yl)cyclohex-3-enecarboxylic acid, TFA] the figure was 1.36 nM.
